Test results: ChEMBL document CHEMBL1121521, “Inhibitors of Bacillus subtilis DNA polymerase III. 6-Anilinouracils and 6-(alkylamino)uracils” (J Med Chem, 1980)

Tests used:
[1] = target: T1, DNA polymerase III PolC-type (Bacillus subtilis (strain 168), UniProt P13267); test: Inhibition against Bacillus subtilis DNA polymerase III (wild type)
Target sequence in this assay (P13267 whole entry): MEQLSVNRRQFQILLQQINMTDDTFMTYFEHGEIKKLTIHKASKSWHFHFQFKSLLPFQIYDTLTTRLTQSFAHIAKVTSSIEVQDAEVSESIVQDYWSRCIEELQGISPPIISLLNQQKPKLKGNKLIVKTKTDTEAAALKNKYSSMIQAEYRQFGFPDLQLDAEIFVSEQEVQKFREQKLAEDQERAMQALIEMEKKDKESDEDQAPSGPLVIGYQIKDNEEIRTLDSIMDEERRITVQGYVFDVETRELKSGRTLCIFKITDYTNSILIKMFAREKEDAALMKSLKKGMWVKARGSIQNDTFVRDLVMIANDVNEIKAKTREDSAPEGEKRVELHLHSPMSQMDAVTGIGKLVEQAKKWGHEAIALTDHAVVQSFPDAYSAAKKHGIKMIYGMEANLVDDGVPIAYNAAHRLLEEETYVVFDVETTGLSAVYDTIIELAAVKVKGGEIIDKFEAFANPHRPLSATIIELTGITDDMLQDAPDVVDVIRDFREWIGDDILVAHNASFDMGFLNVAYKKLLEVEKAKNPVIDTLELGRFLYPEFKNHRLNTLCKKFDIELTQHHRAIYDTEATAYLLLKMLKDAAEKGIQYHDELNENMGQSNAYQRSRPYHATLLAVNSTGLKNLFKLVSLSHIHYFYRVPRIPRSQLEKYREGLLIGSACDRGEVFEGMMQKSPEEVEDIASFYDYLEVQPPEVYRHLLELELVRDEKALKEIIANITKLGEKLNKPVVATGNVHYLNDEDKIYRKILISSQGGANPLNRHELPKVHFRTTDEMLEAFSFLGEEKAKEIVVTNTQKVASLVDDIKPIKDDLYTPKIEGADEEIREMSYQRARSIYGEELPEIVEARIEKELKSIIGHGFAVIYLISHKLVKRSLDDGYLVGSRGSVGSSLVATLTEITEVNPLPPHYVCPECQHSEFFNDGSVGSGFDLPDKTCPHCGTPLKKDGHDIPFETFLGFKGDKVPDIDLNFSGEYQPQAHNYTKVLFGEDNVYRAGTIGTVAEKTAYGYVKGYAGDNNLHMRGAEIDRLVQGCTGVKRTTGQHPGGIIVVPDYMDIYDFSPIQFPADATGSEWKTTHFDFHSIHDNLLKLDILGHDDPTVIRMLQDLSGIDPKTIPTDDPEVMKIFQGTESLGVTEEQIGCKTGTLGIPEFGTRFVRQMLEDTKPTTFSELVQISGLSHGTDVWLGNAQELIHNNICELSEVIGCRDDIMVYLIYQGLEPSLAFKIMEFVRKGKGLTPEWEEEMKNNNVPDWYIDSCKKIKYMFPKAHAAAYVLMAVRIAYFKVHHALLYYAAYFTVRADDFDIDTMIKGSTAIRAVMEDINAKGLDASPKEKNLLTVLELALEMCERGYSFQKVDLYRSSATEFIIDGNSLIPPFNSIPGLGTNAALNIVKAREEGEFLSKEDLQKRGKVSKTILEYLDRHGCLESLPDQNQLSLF

[2] = target: T1, DNA polymerase III PolC-type; test: Inhibition of Bacillus subtilis DNA polymerase III (wild type)
Target sequence in this assay (P13267 whole entry): as above

[3] = target: DNA polymerase III PolC-type (Bacillus subtilis (strain 168)) (UniProt P13267); test: Degree of resistance is the ratio between inhibition of Bacillus subtilis DNA Polymerase III azp-12 and WT.
[4] = target: T1, DNA polymerase III PolC-type; test: In vitro inhibition of Bacillus subtilis DNA Polymerase III/azp-12(mutant).
Target sequence in this assay (P13267 whole entry, looked up): as the sequence (P13267 whole entry) above

[5] = target: T1, DNA polymerase III PolC-type; test: Inhibition of Bacillus subtilis DNA polymerase III (wild type); NA = inactive (<10% inhibition at 1000 uM)
Target sequence in this assay (P13267 whole entry): as above

[6] = target: T1, DNA polymerase III PolC-type; test: Inhibition against Bacillus subtilis DNA Polymerase III/azp-12(mutant)
Target sequence in this assay (P13267 whole entry, looked up): as the sequence (P13267 whole entry) above

[7] = target: T1, DNA polymerase III PolC-type; test: Inhibition of Bacillus subtilis […](wild type); NA = inactive (<10% inhibition at 1000 uM)
Target sequence in this assay (P13267 whole entry): as above

[8] = target: T1, DNA polymerase III PolC-type; test: Inhibition against Bacillus subtilis DNA Polymerase III/azp-12(mutant);NA = inactive (<10% inhibition at 1000 uM)
Target sequence in this assay (P13267 whole entry, looked up): as the sequence (P13267 whole entry) above

Sequence of DNA polymerase III PolC-type (Bacillus subtilis (strain 168)) (P13267 whole entry): as above

Compound `Oc1cc(Nc2ccc(Cl)c(Cl)c2)nc(O)n1` has a Ki [1] of 0.93 µM.
`C=CCNc1cc(O)nc(O)n1` gave a Ki [2] of 22.4 mM.
For `CCc1ccc(Nc2cc(O)nc(O)n2)cc1`, the Degree of resistance [3] was 0.3.
`CCCCCCNc1cc(=O)[nH]c(=O)[nH]1` gave a Ki [1] of 370 µM.
`COc1ccc(Nc2cc(O)nc(O)n2)cc1` showed a Ki [1] of 120 µM, a Ki [4] of 120 µM and a Degree of resistance [3] of 1.
`Cc1ccccc1Nc1cc(O)nc(O)n1` was tested, and the Ki [5] was “Not Active”.
Work on `Cc1ccc(Nc2cc(=O)[nH]c(=O)[nH]2)cc1N` yielded a Ki [6] of 298 µM and a Ki [1] of 122 µM.
With `CCc1ccccc1Nc1cc(O)nc(O)n1` the Ki [7] was “Not Active”.
`OCc1ccc(Nc2cc(O)nc(O)n2)cc1` gave a Degree of resistance [3] of 0.6.
With `Oc1cccc(Nc2cc(O)nc(O)n2)c1` the Ki [1] was 2630 µM and the Ki [8] was “Not Active”.
With `CCCCc1ccc(Nc2cc(O)nc(O)n2)cc1` the Degree of resistance [3] was 0.4.
`O=c1cc(Nc2ccc(Cl)cc2)[nH]c(=O)[nH]1` showed a Degree of resistance [3] of 0.56.
`CC(=O)Nc1cc(Nc2cc(O)nc(O)n2)ccc1C` showed a Ki [1] of 460 µM.
Work on `CCc1cccc(Nc2cc(O)nc(O)n2)c1` yielded a Degree of resistance [3] of 6.4.
Work on `Cc1ccc(Nc2cc(O)nc(O)n2)cc1CCl` yielded a Ki [1] of 0.26 µM.
`Cc1ccc(Nc2cc(=O)[nH]c(=O)[nH]2)cc1I` was tested, and the Ki [1] was 0.38 µM.
Work on `Cc1ccc(Nc2cc(O)nc(O)n2)c(C)c1` yielded a Ki [1] of 1990 µM.
Compound `Oc1cc(Nc2ccc(Br)cc2)nc(O)n1` has a Degree of resistance [3] of 0.13.
Compound `O=c1cc(Nc2cccc3ccccc23)[nH]c(=O)[nH]1` has a Ki [1] of 82.6 µM.
In the case of `CCCCNc1cc(O)nc(O)n1`, the Ki [2] is reported as 5.37 mM.
In the case of `Cc1ccc(C)c(Nc2cc(O)nc(O)n2)c1`, the Ki [1] is reported as 1360 µM.
`O=c1cc(Nc2cccc(CO)c2)[nH]c(=O)[nH]1` was tested, and the Ki [1] was 413 µM and the Ki [4] was 5130 µM.
In the case of `O=c1cc(Nc2ccc(C(F)(F)F)cc2)[nH]c(=O)[nH]1`, the Ki [1] is reported as 101 µM.
In the case of `CCCNc1cc(O)nc(O)n1`, the Ki [5] is reported as “Not Active”.
`CCNc1cc(O)nc(O)n1` was tested, and the Ki [7] was “Not Active”.
In the case of `Oc1cc(Nc2ccc3c(c2)CCC3)nc(O)n1`, the Ki [1] is reported as 0.42 µM.
Work on `Cc1ccc(Nc2cc(O)nc(O)n2)cc1C` yielded a Ki [1] of 0.92 µM, a Ki [4] of 3.5 µM and a Degree of resistance [3] of 3.9.
For `Oc1cc(Nc2cccc(I)c2)nc(O)n1`, the Degree of resistance [3] was 4.3.
`O=c1cc(Nc2ccc3ccccc3c2)[nH]c(=O)[nH]1` was tested, and the Ki [1] was 6.8 µM.
In the case of `CCCCCCCCCCNc1cc(O)nc(O)n1`, the Ki [7] is reported as “Not Active”.
For `Cc1cc(Nc2cc(O)nc(O)n2)ccc1Br`, the Degree of resistance [3] was 0.85.
In the case of `Cc1cc(C)c(Nc2cc(O)nc(O)n2)c(C)c1`, the Ki [7] is reported as “Not Active”.
For `Cc1ccc(Nc2cc(=O)[nH]c(=O)[nH]2)cc1CO`, the Ki [1] was 78.5 µM.
In the case of `CCCc1ccc(Nc2cc(O)nc(O)n2)cc1`, the Degree of resistance [3] is reported as 0.12.
Work on `Oc1cc(Nc2cccc(Br)c2)nc(O)n1` yielded a Ki [1] of 10.3 µM, a Ki [4] of 21.9 µM and a Degree of resistance [3] of 2.1.
In the case of `CCCCCNc1cc(=O)[nH]c(=O)[nH]1`, the Ki [2] is reported as 0.335 mM.
Work on `CC(C)CCNc1cc(=O)[nH]c(=O)[nH]1` yielded a Ki [1] of 2400 µM.
With `CC(=O)Nc1ccc(Nc2cc(=O)[nH]c(=O)[nH]2)cc1C` the Ki [1] was 464 µM.
`Cc1cc(Nc2cc(=O)[nH]c(=O)[nH]2)ccc1N` gave a Ki [6] of 158 µM and a Ki [1] of 19 µM.
`Cc1cccc(Nc2cc(=O)[nH]c(=O)[nH]2)c1` gave a Ki [1] of 42.8 µM and a Ki [4] of 178 µM.
`CCCc1ccc(Nc2cc(=O)[nH]c(=O)[nH]2)cc1` showed a Ki [1] of 452 µM and a Ki [4] of 54 µM.
`Cc1ccc(Nc2cc(O)nc(O)n2)cc1` gave a Degree of resistance [3] of 3.9.
In the case of `O=c1cc(Nc2cccc(CCl)c2)[nH]c(=O)[nH]1`, the Ki [1] is reported as 7.6 µM.
Compound `Cc1cccc(Nc2cc(=O)[nH]c(=O)[nH]2)c1C` has a Ki [1] of 223 µM.
Work on `Cc1cc(C)cc(Nc2cc(=O)[nH]c(=O)[nH]2)c1` yielded a Ki [1] of 124 µM.
`CC(C)c1ccc(Nc2cc(O)nc(O)n2)cc1` was tested, and the Degree of resistance [3] was 0.065.
`Cc1ccc(Nc2cc(O)nc(O)n2)cc1Cl` was tested, and the Ki [1] was 0.63 µM.
In the case of `Oc1ccc(Nc2cc(O)nc(O)n2)cc1`, the Degree of resistance [3] is reported as 2.2.
Work on `Cc1cccc(Nc2cc(O)nc(O)n2)c1` yielded a Degree of resistance [3] of 4.2.
Work on `OCc1cccc(Nc2cc(O)nc(O)n2)c1` yielded a Degree of resistance [3] of 12.4.
`Nc1ccc(Nc2cc(=O)[nH]c(=O)[nH]2)cc1` gave a Ki [6] of 3900 µM and a Ki [1] of 640 µM.
`Oc1cc(Nc2cccc(Cl)c2)nc(O)n1` was tested, and the Ki [1] was 25 µM, the Ki [4] was 41.7 µM and the Degree of resistance [3] was 1.7.
In the case of `O=c1cc(NCCCCCO)[nH]c(=O)[nH]1`, the Ki [1] is reported as 13500 µM.
